Assay results taken from the supplement of paper PMC10883282.
± gives the standard deviation of the averaged measurements.

How the values were obtained:
Test in all cases: relative viability vs DMSO control (72 h) (fraction); higher = more viable cells
A204 = tested on: A204
Outline: (§1)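 Sarcoma cell lines in 384-well plates, seeded to reach 80–90% confluence, were given compound after 24 h and kept 72 h at 37 °C, 5% CO2, with 0.1% DMSO vehicle and a 5 µM positive control. Relative viability came from ATPLite as percent growth, averaged over up to triplicate wells. On the rescaled values, 1 equals full and 0 equals none.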

G401 = tested on: G401
Outline: as §1

HS729 = tested on: HS729
Outline: as §1

KHOS-NP = tested on: KHOS-NP
Outline: as §1

MES-SA = tested on: MES-SA
Outline: as §1

RD = tested on: RD
Outline: as §1

SK-ES-1 = tested on: SK-ES-1
Outline: as §1

SK-LMS-1 = tested on: SK-LMS-1
Outline: as §1

SW684 = tested on: SW684
Outline: as §1

SW872 = tested on: SW872
Outline: as §1

SYO-1 = tested on: SYO-1
Outline: as §1

VA-ES-BJ = tested on: VA-ES-BJ
Outline: as §1

Cc1ccc(C(=O)OCc2ccc([C@@H](CN)C(=O)Nc3ccc4cnccc4c3)cc2)c(C)c1 [Netarsudil]
Conditions	relative viability
A204, 0.00017 µM	1.03 ± 0.025
A204, 0.00051 µM	1.05 ± 0.033
A204, 0.00152 µM	1.04 ± 0.033
A204, 0.00457 µM	1.03 ± 0.036
A204, 0.01372 µM	1.01 ± 0.062
A204, 0.04115 µM	0.963 ± 0.1
A204, 0.1235 µM	0.841 ± 0.084
A204, 0.3704 µM	0.82 ± 0.091
A204, 1.111 µM	0.703 ± 0.038
A204, 3.333 µM	0.609 ± 0.088
A204, 10 µM	0.00737 ± 0.00072
G401, 0.00017 µM	0.956 ± 0.038
G401, 0.00051 µM	0.985 ± 0.029
G401, 0.00152 µM	0.977 ± 0.012
G401, 0.00457 µM	0.996 ± 0.061
G401, 0.01372 µM	0.9802 ± 0.0095
G401, 0.04115 µM	0.957 ± 0.027
G401, 0.1235 µM	0.968 ± 0.045
G401, 0.3704 µM	0.973 ± 0.055
G401, 1.111 µM	0.941 ± 0.04
G401, 3.333 µM	0.946 ± 0.056
G401, 10 µM	0.00503 ± 0.0011
HS729, 0.00017 µM	0.874 ± 0.04
HS729, 0.00051 µM	0.85 ± 0.036
HS729, 0.00152 µM	0.899 ± 0.052
HS729, 0.00457 µM	0.852 ± 0.033
HS729, 0.01372 µM	0.87 ± 0.017
HS729, 0.04115 µM	0.896 ± 0.065
HS729, 0.1235 µM	0.876 ± 0.02
HS729, 0.3704 µM	0.844 ± 0.038
HS729, 1.111 µM	0.812 ± 0.012
HS729, 3.333 µM	0.8113 ± 0.0073
HS729, 10 µM	0.224 ± 0.14
KHOS-NP, 0.00017 µM	1.03 ± 0.013
KHOS-NP, 0.00051 µM	1.06 ± 0.038
KHOS-NP, 0.00152 µM	1.03 ± 0.017
KHOS-NP, 0.00457 µM	1.05 ± 0.012
KHOS-NP, 0.01372 µM	1.03 ± 0.025
KHOS-NP, 0.04115 µM	1.03 ± 0.03
KHOS-NP, 0.1235 µM	1 ± 0.011
KHOS-NP, 0.3704 µM	0.997 ± 0.014
KHOS-NP, 1.111 µM	0.968 ± 0.037
KHOS-NP, 3.333 µM	0.986 ± 0.056
KHOS-NP, 10 µM	0.0142 ± 0.0013
MES-SA, 0.00017 µM	0.89 ± 0.031
MES-SA, 0.00051 µM	0.901 ± 0.025
MES-SA, 0.00152 µM	0.892 ± 0.018
MES-SA, 0.00457 µM	0.905 ± 0.032
MES-SA, 0.01372 µM	0.921 ± 0.053
MES-SA, 0.04115 µM	0.884 ± 0.048
MES-SA, 0.1235 µM	0.85 ± 0.021
MES-SA, 0.3704 µM	0.775 ± 0.036
MES-SA, 1.111 µM	0.672 ± 0.054
MES-SA, 3.333 µM	0.402 ± 0.011
MES-SA, 10 µM	0.00233 ± 0.00093
RD, 0.00017 µM	1.09 ± 0.067
RD, 0.00051 µM	1.1 ± 0.059
RD, 0.00152 µM	1.12 ± 0.087
RD, 0.00457 µM	1.11 ± 0.054
RD, 0.01372 µM	1.1 ± 0.037
RD, 0.04115 µM	1.14 ± 0.046
RD, 0.1235 µM	1.13 ± 0.044
RD, 0.3704 µM	1.15 ± 0.036
RD, 1.111 µM	1.15 ± 0.047
RD, 3.333 µM	0.976 ± 0.19
RD, 10 µM	0.0128 ± 0.0013
SK-ES-1, 0.00017 µM	1.01 ± 0.02
SK-ES-1, 0.00051 µM	0.999 ± 0.05
SK-ES-1, 0.00152 µM	1.04 ± 0.053
SK-ES-1, 0.00457 µM	1.04 ± 0.039
SK-ES-1, 0.01372 µM	1.03 ± 0.023
SK-ES-1, 0.04115 µM	1.04 ± 0.025
SK-ES-1, 0.1235 µM	1.03 ± 0.018
SK-ES-1, 0.3704 µM	1.04 ± 0.034
SK-ES-1, 1.111 µM	1.04 ± 0.012
SK-ES-1, 3.333 µM	0.761 ± 0.055
SK-ES-1, 10 µM	0.0124 ± 0.00042
SK-LMS-1, 0.00017 µM	1.03 ± 0.018
SK-LMS-1, 0.00051 µM	1.05 ± 0.029
SK-LMS-1, 0.00152 µM	1.02 ± 0.021
SK-LMS-1, 0.00457 µM	1 ± 0.098
SK-LMS-1, 0.01372 µM	1.043 ± 0.0086
SK-LMS-1, 0.04115 µM	1.03 ± 0.025
SK-LMS-1, 0.1235 µM	1.07 ± 0.11
SK-LMS-1, 0.3704 µM	0.989 ± 0.072
SK-LMS-1, 1.111 µM	0.799 ± 0.038
SK-LMS-1, 3.333 µM	0.574 ± 0.026
SK-LMS-1, 10 µM	0.0101 ± 0.00044
SW684, 0.00017 µM	1.12 ± 0.022
SW684, 0.00051 µM	1.1 ± 0.094
SW684, 0.00152 µM	1.11 ± 0.049
SW684, 0.00457 µM	1.11 ± 0.046
SW684, 0.01372 µM	1.09 ± 0.037
SW684, 0.04115 µM	1.076 ± 0.004
SW684, 0.1235 µM	0.991 ± 0.024
SW684, 0.3704 µM	0.8806 ± 0.0066
SW684, 1.111 µM	0.884 ± 0.043
SW684, 3.333 µM	0.805 ± 0.069
SW684, 10 µM	-0.0136 ± 0.0025
SW872, 0.00017 µM	0.997 ± 0.059
SW872, 0.00051 µM	1.01 ± 0.077
SW872, 0.00152 µM	1.01 ± 0.073
SW872, 0.00457 µM	0.988 ± 0.031
SW872, 0.01372 µM	1.01 ± 0.034
SW872, 0.04115 µM	0.955 ± 0.036
SW872, 0.1235 µM	0.961 ± 0.062
SW872, 0.3704 µM	0.82 ± 0.049
SW872, 1.111 µM	0.74 ± 0.015
SW872, 3.333 µM	0.637 ± 0.11
SW872, 10 µM	0.000233 ± 0.0018
SYO-1, 0.00017 µM	0.953 ± 0.047
SYO-1, 0.00051 µM	0.962 ± 0.044
SYO-1, 0.00152 µM	0.952 ± 0.041
SYO-1, 0.00457 µM	0.953 ± 0.021
SYO-1, 0.01372 µM	0.923 ± 0.031
SYO-1, 0.04115 µM	0.874 ± 0.011
SYO-1, 0.1235 µM	0.828 ± 0.021
SYO-1, 0.3704 µM	0.756 ± 0.049
SYO-1, 1.111 µM	0.691 ± 0.041
SYO-1, 3.333 µM	0.636 ± 0.13
SYO-1, 10 µM	-0.0088 ± 0.0045
VA-ES-BJ, 0.00017 µM	1.02 ± 0.051
VA-ES-BJ, 0.00051 µM	1 ± 0.065
VA-ES-BJ, 0.00152 µM	0.998 ± 0.033
VA-ES-BJ, 0.00457 µM	1.02 ± 0.048
VA-ES-BJ, 0.01372 µM	1.01 ± 0.022
VA-ES-BJ, 0.04115 µM	0.991 ± 0.028
VA-ES-BJ, 0.1235 µM	0.99 ± 0.058
VA-ES-BJ, 0.3704 µM	0.998 ± 0.039
VA-ES-BJ, 1.111 µM	1.03 ± 0.03
VA-ES-BJ, 3.333 µM	1.03 ± 0.12
VA-ES-BJ, 10 µM	0.659 ± 0.13
